Results on nine molecules are retold here after publication PMC5907308, “21st Brazilian Diabetes Society Congress” (Diabetology & Metabolic Syndrome, 2018).

Data set [1] relates to patients after Roux-en-Y gastric bypass. In words: Postprandial hyperinsulinemic hypoglycemia after RYGB, case series. Type of data set: in vivo, human. The method, then: Cases report: Case (1) A person developed postprandial hypoglycemic episodes 6 years after Roux-en-Y gastric bypass (RYGB). A mixed meal tolerance test (MMTT, 500 kcal, 20% protein, 20% fat and 60% carbohydrates) was performed, leading to symptomatic postprandial hyperinsulinemic hypoglycemia (PHH) with a nadir of 45 mg/dL at 120 min (insulin of 8 mU/L; C-peptide of 3.21 ng/mL). […] Cases 2 and 3). Two […] women presented hypoglycemia following meals 3 and 5 years after RYGB. MMTT (120 min): glycemia of 34 mg/dL, insulin of 17 mU/L and C-peptide of 6.23 ng/mL and, in the second one, glycemia of 52 mg/dL, insulin of 9 mU/L and C-peptide of 2.7 ng/mL. PT and MRCP were normal in both cases. […] Case 4). A person who underwent RYGB 1.5 years ago reported hypoglycemic episodes in the last 6 months. MMTT: glycemia of 26 mg/dL at 150 min, insulin of 34 mU/L and C-peptide of 6.03 ng/mL. […] They were submitted to distal pancreatectomy and symptoms disappeared after diazoxid and hydrochlorothiazide. Case 5). A person developed hypoglycemia 10 years after RYGB. […] MMTT: glycemia of 43 mg/dL at 120 min, insulin of 100 mU/L and C-peptide of 1.95 ng/mL. […] Antiinsulin antibodies were negative in all cases (Table 1).

Data set [2] deals with patient with T2DM. In words: Case report: endogenous hyperinsulinism in T2DM. Format: in vivo, human. Particulars: Acarbose prescribed 2 years ago; Verapamil 80 mg/day with dietary changes. The source says:
patient three diagnosed with type 2 diabetes (T2DM), using insulin for 22 years. Eight years ago, they started to present frequent episodes of symptomatic hypoglycemia, preferably in fasting periods. There was no cessation of the episodes even with the suspension of all insulin and antidiabetic drugs, which lead to an investigation with a prolonged fasting test (Table 1). The test confirmed endogenous hyperinsulinism (EH). […] They were then submitted to a selective arterial calcium stimulation test (SACST), whose results excluded insulinoma. […] Verapamil (80 mg/day) was initiated along with dietary changes, with good response.

Data set [3] relates to hypothalamus of young rats. Nature of the data set: Chronic ICV treatment with the nitric oxide donor GSNO. Type of data set: in vivo, rat.
Another data set concerns T2DM patients. Particulars: monotherapy; systematic review and mixed treatment meta-analyses comparison of RCTs; cited from earlier work. From the text: Results: All DPP4 presented a statistically significant change of HbA1c from baseline compared to placebo (alogliptin − 0.797 (95%CI − 0.943 to − 0.651); linagliptin − 0.734 (CI − 0.88 to − 0.588); saxagliptin − 0.593 (CI − 0.811 to − 0.375); sitagliptin -0.788 (CI − 0.954 to − 0.622); vildagliptin −0.60 (CI − 0.80 to − 0.40)). Based on drug acquisition costs, alogliptin monotherapy presented the lowest annual treatment costs and the lowest cost for every 1% HbA1c reduction followed by saxagliptin, linagliptin, sitagliptin and vildagliptin (Table 1).

The subject of another data set is patients with T1DM. In words: High dose vitamin D for 12 weeks, DKD/albuminuria pilot study. Format: in vivo, human. From the text:
Methods: 22 patients received doses of 4000 and 10000 IU/day of cholecalciferol for 12 weeks according to patient’s previous VD levels. They were submitted to continuous glucose monitoring system (CGMS), 24-h ABPM and urine albumin-to-creatinine ratio (UACR) before and after VD supplementation.

Data set [4] has as its system patient with T2DM. Type of data set: in vivo. Particulars: systemic treatment.
Source text: After evaluation and exclusion of other diagnoses (medication use, trauma, or facial surgery) as well as exclusion of another kind of diabetic neuropathy, such as sensitive or cardiac autonomic neuropathy, the hypothesis of diabetic gustatory sweating (DGS) was established.
The subject of the next data set is patient with DM2 and PAH. In words: Vildagliptin in T2DM with pulmonary arterial hypertension, case report. Type of data set: in vivo, human. The source says:
The main etiology of pulmonary arterial hypertension (PAH) is idiopathic. In more than one-third of these cases, patients have criteria for metabolic syndrome. Alone, obesity, dyslipidemia and type 2 diabetes mellitus (T2DM) have a direct and indirect relationship in the pathophysiology of PAH. The presence of glucagon-like peptide-1 (GLP1) receptors in different organs of our body gives this incretin several pleiotropic effects, in addition to its already well established role in the treatment of obesity and T2DM. […] Considering this and using a weight-neutral incretin-based therapy, we opted for the use of a DPP4 inhibitor (vildagliptin 50 mg 2×/day) to increase GLP1 levels in a patient with DM2, hypertension, dyslipidemia, obesity grade I (BMI of 30.2 kg/m2) and PAH.

Data set [5] relates to patient with metastatic melanoma. Nature of the data set: Ipilimumab endocrinological side effects, case report. Format: in vivo, human. From the text:
In the last couple of years, monoclonal antibodies have emerged as effective therapies for advanced neoplasms. […] CTLA-4 is expressed on the surface of T lymphocytes and transmits an inhibitory signal through its B7-1/2 linker. In blocking the CTLA-4, Ipilimumab promotes an enhancement of T cell activation against neoplasms. During the treatment, the activation of these cells can also be directed to different organs/tissues and affect the skin (dermatitis), gastrointestinal tract (colitis, pancreatitis, hepatitis), lung (pneumonitis) and endocrine glands (thyroiditis, hypophysitis, adrenalitis). […] The patient is a person previously healthy, with a diagnosis of metastatic melanoma. They were subjected to surgical removal of the skin lesion and infraclavicular lymph node, in addition to adjuvant treatment with Ipilimumab. They performed four cycles of this medication and evolved with asthenia, headache, abdominal pain and hyperglycemia, about 3 weeks after the last cycle. They were hospitalized and during the medical investigation the following were detected: low ACTH, low cortisol and hyperprolactinemia—characterizing hypophysitis. Furthermore, there was an elevation of amylase and lipase and hyperglycemia, with levels above 400 mg/dL, requiring insulinization. […]

The test system of the next data set is patient with BSCL. Nature of the data set: Case report: metreleptin in Berardinelli-Seip congenital lipodystrophy. Type of data set: in vivo, human. The method, then: Case presentation: Two brothers with neonatal diagnosis of Berardinelli-Seip Congenital Lipodystrophy (BSCL), without cases of diabetes or similar diseases in their family. Clinically, both present muscular hypertrophy and acromegaloid features. […] Serum leptin 1 ng/mL (reference range: 2–18). […] Leptin 1.3 ng/mL. In 2016, HbA1C 7.8%, in use of Metformin 2 g/day, pioglitazone and vitamins E, A and D supplementation. […] By that time, Metreleptin was initiated at a 5 mg/day dose (0.07 mg/kg/day) and Metformin was maintained. After 3 months, the patient has HbA1C 5%, triglyceride level 70 mg/dL, TGO 42 U/L and TGP 32 U/L.

Regarding `C[C@H]1O[C@H](O[C@H]2[C@H](O)[C@@H](O)[C@@H](O[C@H]3[C@H](O)[C@@H](O)C(O)O[C@@H]3CO)O[C@@H]2CO)[C@H](O)[C@@H](O)[C@@H]1N[C@H]1C=C(CO)[C@@H](O)[C@H](O)[C@H]1O` (some centres unmarked) [Acarbose], the “clinical response of postprandial hypoglycemia” value in data set [1] (Case 5) is reported as “controlled their symptoms”; in data set [1] (Cases 2 and 3) it was “Improvement occurred”. Besides, the “response of hypoglycemia episodes” value in the data set with patient with T2DM [2] is “no improvement”.

In the case of `N[C@@H](CCC(=O)N[C@@H](CSN=O)C(=O)NCC(=O)O)C(=O)O` [GSNO], in data set [3], the “S-nitrosation of insulin signalling proteins in the hypothalamus” value was “enhance S-NO of IRβ and Akt”; the “food intake and body weight” value is “increased food intake and body weight”.

As for `N[C@@H](CC(=O)N1CCn2c(nnc2C(F)(F)F)C1)Cc1cc(F)c(F)cc1F` [Sitagliptin, sitagliptin], in the data set on T2DM patients, the “change of HbA1c from baseline compared to placebo” value is on record as -0.788.

With `C=C1CC[C@H](O)C/C1=C/C=C1\CCC[C@]2(C)[C@@H]([C@H](C)CCCC(C)C)CC[C@@H]12` [VD, cholecalciferol], the “patients with DKD at the beginning whose DKD stage improved” value with patients with T1DM (8/13 patients, 12 weeks) is reported as 62%. Also, the “DKD prevalence at the end of the study” value in the data set on patients with T1DM (cholecalciferol 4000 or 10000 IU/day for 12 weeks, n = 22, 68% before) amounted to 32%.

As to `COc1ccc(CCN(C)CCCC(C#N)(c2ccc(OC)c(OC)c2)C(C)C)cc1OC` (centres unmarked) [Verapamil], the “response of hypoglycemia episodes” value in the data set with patient with T2DM [2] is given as “good response”.

In the case of `CCN(CC)CC#CCOC(=O)C(O)(c1ccccc1)C1CCCCC1` (centres unmarked) [oxybutynin], in the data set on patient with T2DM [4], the “response of gustatory sweating” value is reported as “excellent response as early as week 1” and the side effect result is given as “mild side effect of xerostomia”.

As to `N#C[C@@H]1CCCN1C(=O)CNC12CC3CC(CC(O)(C3)C1)C2` [vildagliptin], in the data set with T2DM patients, the “change of HbA1c from baseline compared to placebo” value is reported as −0.60. In addition, in the data set with patient with DM2 and PAH (50 mg 2×/day, 6 months after its use, 45 mmHg before), the “right ventricular systolic pressure (RVSP)” value came to 38 mmHg. The fasting glycemia was 111 mg/dL with patient with DM2 and PAH (6 months after its use); 112 mg/dL in the data set with patient with DM2 and PAH (January/2017). The A1c with patient with DM2 and PAH (6 months after its use, without episodes of hypoglycemia) was 6.0%; in the data set with patient with DM2 and PAH (January/2017), 6.5%. In the data set on patient with DM2 and PAH (January/2017, 3 years of follow up), this molecule returned an RVSP of 31 mmHg.

For the molecule Ipilimumab, the endocrinological side effects result in data set [5] (four cycles, adjuvant treatment, about 3 weeks after the last cycle) was “hypophysitis and pancreatitis, in addition to secondary diabetes”. In addition, the “hyperglycemia, levels” value in data set [5] (requiring insulinization) was “above 400 mg/dL”.

As for “Metreleptin: a recombinant leptin analog”, in the data set with patient with BSCL (3 months of Metreleptin 5 mg/day with Metformin, […] before), the HbA1C was found to be 5%. In the data set on patient with BSCL (after 3 months), the TGO is on record as 42 U/L and the TGP was 32 U/L.
